Experiment: CHX and PLS release into storage solution
Format: physicochemical
Settings: in water over a period of 6 weeks
Description: CHX and PLS release into sample storage solutions were quantified using UV spectrometry (Mehdawi 2009, Zhao 2011) and HPLC respectively.
Reactive filler composites containing PLS were prepared as 1 mm thick composite discs. The fluid phase contained 70% UDMA, 25% TEG-DMA, 5% HEMA, 300 ppm BHT, DMPT 0.5%, BP 0.5%. 25 wt % of this fluid phase was combined with 75 wt % powder filler. The filler contained polylysine (1 or 10 wt %), chlorhexidine (0 or 10 wt %), MCPM/TCP (CaP=10 or 20 wt %) and the remainder glass particles (Sci Pharm).

## ε-poly-L-lysine [PLS]
  percentage released from 1 mm thick composite discs: over 70%
